Laboratory results taken from PubChem BioAssay (NCI).
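How tested: cells in 96-well plates exposed to compound for 48 hours at five concentrations. Here, GI50 denotes the concentration required for 50% inhibition of growth. The concentration for full growth arrest is given as TGI.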

Tests used:
Experiment in all cases: inhibition of tumour cell growth, NCI panel, 48 h
786-0 renal = tested on: 786-0 renal
A498 renal = tested on: A498 renal
A549 NSCLC = tested on: A549 NSCLC
ACHN renal = tested on: ACHN renal
CAKI-1 renal = tested on: CAKI-1 renal
CCRF-CEM leukemia = tested on: CCRF-CEM leukemia
COLO 205 colon = tested on: COLO 205 colon
DU-145 prostate = tested on: DU-145 prostate
EKVX NSCLC = tested on: EKVX NSCLC
HCC-2998 colon = tested on: HCC-2998 colon
HCT-116 colon = tested on: HCT-116 colon
HCT-15 colon = tested on: HCT-15 colon
HL-60(TB) leukemia = tested on: HL-60(TB) leukemia
HOP-62 NSCLC = tested on: HOP-62 NSCLC
HOP-92 NSCLC = tested on: HOP-92 NSCLC
HS 578T breast = tested on: HS 578T breast
HT29 colon = tested on: HT29 colon
IGROV1 ovarian = tested on: IGROV1 ovarian
KM12 colon = tested on: KM12 colon
LOX IMVI melanoma = tested on: LOX IMVI melanoma
M14 melanoma = tested on: M14 melanoma
MALME-3M melanoma = tested on: MALME-3M melanoma
MCF7 breast = tested on: MCF7 breast
MDA-MB-231 breast = tested on: MDA-MB-231 breast
MDA-MB-435 = tested on: MDA-MB-435
MDA-N = tested on: MDA-N
NCI-H23 lung = tested on: NCI-H23 lung
NCI-H460 lung = tested on: NCI-H460 lung
NCI-H522 lung = tested on: NCI-H522 lung
NCI/ADR-RES ovarian = tested on: NCI/ADR-RES ovarian
OVCAR-3 ovarian = tested on: OVCAR-3 ovarian
OVCAR-4 ovarian = tested on: OVCAR-4 ovarian
OVCAR-5 ovarian = tested on: OVCAR-5 ovarian
OVCAR-8 ovarian = tested on: OVCAR-8 ovarian
PC-3 prostate = tested on: PC-3 prostate
RXF 393 renal = tested on: RXF 393 renal
SF-268 CNS = tested on: SF-268 CNS
SF-295 CNS = tested on: SF-295 CNS
SF-539 CNS = tested on: SF-539 CNS
SK-MEL-2 melanoma = tested on: SK-MEL-2 melanoma
SK-MEL-28 melanoma = tested on: SK-MEL-28 melanoma
SK-MEL-5 melanoma = tested on: SK-MEL-5 melanoma
SK-OV-3 ovarian = tested on: SK-OV-3 ovarian
SN12C renal = tested on: SN12C renal
SNB-19 CNS = tested on: SNB-19 CNS
SNB-75 CNS = tested on: SNB-75 CNS
SR leukemia = tested on: SR leukemia
SW-620 colon = tested on: SW-620 colon
T-47D breast = tested on: T-47D breast
TK-10 renal = tested on: TK-10 renal
U251 CNS = tested on: U251 CNS
UACC-257 melanoma = tested on: UACC-257 melanoma
UACC-62 melanoma = tested on: UACC-62 melanoma
UO-31 renal = tested on: UO-31 renal
K-562 leukemia = tested on: K-562 leukemia
MOLT-4 leukemia = tested on: MOLT-4 leukemia
NCI-H226 lung = tested on: NCI-H226 lung
RPMI-8226 leukemia = tested on: RPMI-8226 leukemia

## CCCn1c2c(c3ccccc3c1=O)C(=O)c1cc3c(cc1-2)OCO3
786-0 renal
  GI50: 77.2 µM
  TGI: > 100 µM
A498 renal
  GI50: > 100 µM
  TGI: > 100 µM
A549 NSCLC
  GI50: > 100 µM
  TGI: > 100 µM
ACHN renal
  GI50: > 100 µM
  TGI: > 100 µM
CAKI-1 renal
  GI50: 97.3 µM
  TGI: > 100 µM
CCRF-CEM leukemia
  GI50: > 100 µM
  TGI: > 100 µM
COLO 205 colon
  GI50: > 100 µM
  TGI: > 100 µM
DU-145 prostate
  GI50: > 100 µM
  TGI: > 100 µM
EKVX NSCLC
  GI50: 91.2 µM
  TGI: > 100 µM
HCC-2998 colon
  GI50: 16.9 µM
  TGI: 99.6 µM
HCT-116 colon
  GI50: 30.5 µM
  TGI: > 100 µM
HCT-15 colon
  GI50: > 100 µM
  TGI: > 100 µM
HL-60(TB) leukemia
  GI50: > 100 µM
  TGI: > 100 µM
HOP-62 NSCLC
  GI50: > 100 µM
  TGI: > 100 µM
HOP-92 NSCLC
  GI50: 159 nM
  TGI: 0.458 µM
HS 578T breast
  GI50: > 100 µM
  TGI: > 100 µM
HT29 colon
  GI50: > 100 µM
  TGI: > 100 µM
IGROV1 ovarian
  GI50: 44.4 µM
  TGI: > 100 µM
KM12 colon
  GI50: 31.5 µM
  TGI: > 100 µM
LOX IMVI melanoma
  GI50: > 100 µM
  TGI: > 100 µM
M14 melanoma
  GI50: > 100 µM
  TGI: > 100 µM
MALME-3M melanoma
  GI50: > 100 µM
  TGI: > 100 µM
MCF7 breast
  GI50: 9.39 µM
  TGI: > 100 µM
MDA-MB-231 breast
  GI50: > 100 µM
  TGI: > 100 µM
MDA-MB-435
  GI50: > 100 µM
  TGI: > 100 µM
MDA-N
  GI50: > 100 µM
  TGI: > 100 µM
NCI-H23 lung
  GI50: > 100 µM
  TGI: > 100 µM
NCI-H460 lung
  GI50: 26.8 µM
  TGI: > 100 µM
NCI-H522 lung
  GI50: 60.1 µM
  TGI: > 100 µM
NCI/ADR-RES ovarian
  GI50: 76.9 µM
  TGI: > 100 µM
OVCAR-3 ovarian
  GI50: 21 µM
  TGI: > 100 µM
OVCAR-4 ovarian
  GI50: > 100 µM
  TGI: > 100 µM
OVCAR-5 ovarian
  GI50: > 100 µM
  TGI: > 100 µM
OVCAR-8 ovarian
  GI50: > 100 µM
  TGI: > 100 µM
PC-3 prostate
  GI50: 71.1 µM
  TGI: > 100 µM
RXF 393 renal
  GI50: > 100 µM
  TGI: > 100 µM
SF-268 CNS
  GI50: > 100 µM
  TGI: > 100 µM
SF-295 CNS
  GI50: 44.8 µM
  TGI: > 100 µM
SF-539 CNS
  GI50: > 100 µM
  TGI: > 100 µM
SK-MEL-2 melanoma
  GI50: > 100 µM
  TGI: > 100 µM
SK-MEL-28 melanoma
  GI50: > 100 µM
  TGI: > 100 µM
SK-MEL-5 melanoma
  GI50: > 100 µM
  TGI: > 100 µM
SK-OV-3 ovarian
  GI50: > 100 µM
  TGI: > 100 µM
SN12C renal
  GI50: > 100 µM
  TGI: > 100 µM
SNB-19 CNS
  GI50: > 100 µM
  TGI: > 100 µM
SNB-75 CNS
  GI50: > 100 µM
  TGI: > 100 µM
SR leukemia
  GI50: 6.1 µM
  TGI: > 100 µM
SW-620 colon
  GI50: 83.2 µM
  TGI: > 100 µM
T-47D breast
  GI50: > 100 µM
  TGI: > 100 µM
TK-10 renal
  GI50: 86.9 µM
  TGI: > 100 µM
U251 CNS
  GI50: > 100 µM
  TGI: > 100 µM
UACC-257 melanoma
  GI50: > 100 µM
  TGI: > 100 µM
UACC-62 melanoma
  GI50: > 100 µM
  TGI: > 100 µM
UO-31 renal
  GI50: > 100 µM
  TGI: > 100 µM

## N=C1N(c2ccccc2)C(=S)C(=Nc2ccccc2)N1c1ccccc1
786-0 renal
  TGI: 22.2 µM
A498 renal
  TGI: 31.8 µM
A549 NSCLC
  TGI: 42.1 µM
ACHN renal
  TGI: 20.6 µM
CAKI-1 renal
  TGI: 27.7 µM
CCRF-CEM leukemia
  TGI: > 20.7 µM
COLO 205 colon
  TGI: 12.1 µM
DU-145 prostate
  TGI: 31.2 µM
EKVX NSCLC
  TGI: 53.1 µM
HCC-2998 colon
  TGI: 30.7 µM
HCT-116 colon
  TGI: 7.26 µM
HCT-15 colon
  TGI: 21.9 µM
HL-60(TB) leukemia
  TGI: 10.9 µM
HOP-62 NSCLC
  TGI: 34.1 µM
HOP-92 NSCLC
  TGI: 22.9 µM
HS 578T breast
  TGI: 47.4 µM
HT29 colon
  TGI: 18.3 µM
IGROV1 ovarian
  TGI: 25.9 µM
K-562 leukemia
  TGI: 9.59 µM
KM12 colon
  TGI: 27.2 µM
LOX IMVI melanoma
  TGI: 5.14 µM
M14 melanoma
  TGI: 23.6 µM
MALME-3M melanoma
  TGI: 26.6 µM
MCF7 breast
  TGI: 3.46 µM
MDA-MB-231 breast
  TGI: 20.9 µM
MDA-MB-435
  TGI: 3.94 µM
MDA-N
  TGI: 6.1 µM
MOLT-4 leukemia
  TGI: 7.55 µM
NCI-H226 lung
  TGI: 36.3 µM
NCI-H23 lung
  TGI: 18 µM
NCI-H460 lung
  TGI: 31 µM
NCI-H522 lung
  TGI: 7.72 µM
NCI/ADR-RES ovarian
  TGI: 38.6 µM
OVCAR-3 ovarian
  TGI: 9.55 µM
OVCAR-4 ovarian
  TGI: 26.8 µM
OVCAR-5 ovarian
  TGI: 32.1 µM
OVCAR-8 ovarian
  TGI: 16.7 µM
PC-3 prostate
  TGI: 24.8 µM
RPMI-8226 leukemia
  TGI: 13.9 µM
RXF 393 renal
  TGI: 25 µM
SF-268 CNS
  TGI: 29.7 µM
SF-295 CNS
  TGI: 30.5 µM
SF-539 CNS
  TGI: 24.9 µM
SK-MEL-2 melanoma
  TGI: 12.4 µM
SK-MEL-28 melanoma
  TGI: 31.7 µM
SK-MEL-5 melanoma
  TGI: 6.21 µM
SK-OV-3 ovarian
  TGI: 33 µM
SN12C renal
  TGI: 27.8 µM
SNB-19 CNS
  TGI: 30.4 µM
SNB-75 CNS
  TGI: 29.4 µM
SR leukemia
  TGI: > 48.4 µM
SW-620 colon
  TGI: 13 µM
T-47D breast
  TGI: 9.21 µM
TK-10 renal
  TGI: 28.2 µM
U251 CNS
  TGI: 27.3 µM
UACC-257 melanoma
  TGI: 7.52 µM
UACC-62 melanoma
  TGI: 13.5 µM
UO-31 renal
  TGI: 16.7 µM
